Tests used:
[1] = system: bacteria; details: cited from earlier work
[2] = system: oral bacteria; details: bacteria grown in a broth media; cited from earlier work
[3] = system: Streptococcus mutans; experiment: Killing of Streptococcus mutans by lactoferrin variants and peptide; assay type: cell-based; details: synthetic peptide
Excerpt: Caries is the single most common chronic childhood disease, five times more common than asthma. Over 70% of children […] have cavities. Over 108 million Americans lack dental health insurance so that treatment of this infection is lacking. S. mutans is considered one of the microbes most associated with dental decay.
Others have shown that lactoferrin peptides have antimicrobial activity, but no one to date has shown that the antibacterial activity derived from this peptide is useful against organisms in the oral cavity. We have also determined that the peptide will have limited usefulness in the oral cavity unless it is linked to something that will allow the peptide to bind to a surface in the oral cavity. A fusion peptide comprising lactoferrin and statherin was previously developed, wherein the lactoferrin portion provided antimicrobial activity while the statherin portion enabled the fusion peptide to adhere to the tooth surface. […]
Lactoferrin (Lf or LF) is a multifunctional protein that is found in mammary secretion, tears and saliva and in the gastrointestinal tract. […] Further we then determined that pure lactoferrin would have limited usefulness in the oral cavity unless it was linked to something that would allow it to bind to the oral cavity.

[4] = previously demonstrated; cited from earlier work
[5] = system: Candida; experiment: Two hour cell killing assay with supernatants from salivary-coated HAP or BECs; assay type: cell-based; details: sHAP incubated with peptide, washed, 1 hour release; 2 hour cell killing assay
Procedure: The procedures depicted in FIG. 5 were carried out with two LF fusion peptides (ST-LF and PAK-LF). Salivary-coated HAP was incubated with ST-LF peptide for 30 minutes and then washed with PBS and the supernatant tested. Fresh PBS was added, and the salivary-coated HAP was further incubated for 1 hour. The salivary-coated HAP was again rinsed and the supernatant solution was then tested for anti-candidal activity. The results are depicted in FIG. 6.

For Penicillin, the “adherence of bacteria to drug-treated, washed SHA” value [1] is given as “no effect” and the “effective concentration against oral bacteria” value [2] is given as 1 µg/mL.
For “LF: FQWQRNMRKVR, lactoferrin peptide, lys form (listed as Homo sapiens)”, the “killing of Streptococcus mutans” value [3] was “kills Streptococcus mutans”.
In the case of “ST-LF: DDDEEKFQWQRNMRKVR, statherin-lactoferrin fusion peptide of PCT/US08/51165 (ST-LF fusion peptide)”, the “binding to tooth enamel surfaces” value [4] is given as “bind to tooth enamel surfaces” and the “anti-candidal activity of supernatant from salivary-coated HAP” value [5] is given as “no inhibition of Candida”.

Reference: patent US9408889B2, “Fusion peptide designed to reduce plaque bacteria and yeast in the oral cavity” (RUTGERS, THE STATE UNIVERSITY OF NEW JERSEY, priority 2011, dated 2016)
